From patent US9975848B2, “Inhibitors of HIV-1 entry and methods of use thereof” (priority 2014, dated 2018)
Values joined by “and” are separate entries in the source; they are usually repeats but may differ in a detail not shown here. Equal entries are not always repeated. Where two headings read alike, the source gives them in different places.

How the values were obtained:
JR-FL = assay: Infection by single-round luciferase viruses, HIV-1 JR-FL envelope; assay type: cell-based; conditions: Human immunodeficiency virus 1, 48 h, read-out: JR-FL (μM)
monomeric YU-2 gp120 = target: T1, monomeric YU-2 gp120 (Human immunodeficiency virus type 1 group M subtype B, UniProt P35961); assay: biochemical; assay type: binding, HIV-1; conditions: ITC, 25° C., PBS pH 7.4, 2% DMSO
T1 construct: containing monomeric YU-2 gp120 at a concentration of 2 μM
Experimental: Isothermal Titration Calorimetry. Thermodynamic parameters for the binding of the different inhibitors to gp120 were obtained by isothermal titration calorimetry (ITC) using a VP-ITC microcalorimeter from MicroCal/GE Healthcare (Northampton, Mass., USA). The titrations were performed at 25° C. by injecting 10 μL aliquots of inhibitor solution into the calorimetric cell (volume ˜1.4 mL) containing monomeric YU-2 gp120 at a concentration of 2 μM. […] In all titration experiments, gp120 and the different inhibitors were equilibrated with PBS, pH 7.4, with 2% DMSO. The heat evolved upon each injection of inhibitor was obtained by integration of the calorimetric signal. The heat associated with inhibitor binding to gp120 was obtained by subtracting the heat of dilution from the heat of reaction.

AD8 = assay: Infection by single-round luciferase viruses, HIV-1 AD8 envelope; assay type: cell-based; conditions: Human immunodeficiency virus 1, 48 h, read-out: AD8 (μM)
YU-2 = assay: Infection by single-round luciferase viruses, HIV-1 YU-2 envelope; assay type: cell-based; conditions: Human immunodeficiency virus 1, 48 h, read-out: YU-2 (μM)
Experimental: (§1) Compounds: Compounds are dissolved in dimethyl sulfoxide at a stock concentration of 10 mM, aliquoted, and stored at −20° C. Each compound is then diluted to 1 mM in serum-free Dulbecco's modified Eagle medium (DMEM) and used for different assays.
(§2) Cell Lines: 293T human embryonic kidney and Cf2Th canine thymocytes (ATCC) are grown at 37° C. and 5% CO2 in Dulbecco's modified Eagle's medium (Invitrogen) containing 10% fetal bovine serum (Sigma) and 100 μg/mL penicillin-streptomycin (Mediatech, Inc.). Cf2Th cells stably expressing human CCR5 and CD4 are grown in medium supplemented with 0.4 mg/mL G418 and 0.2 mg/mL hygromycin (Invitrogen).
(§3) Recombinant Luciferase Viruses: 293T human embryonic kidney cells were co-transfected with plasmids expressing the pCMVΔP1Δenv HIV-1 Gag-Pol packaging construct, the R5 YU2 envelope glycoproteins, or the envelope glycoprotein of the control amphotropic murine leukemia virus (A-MLV), and the firefly luciferase-expressing vector at a DNA ratio of 1:1:3 μg using the Effectene transfection reagent (Qiagen). Co-transfection produced single-round, replication-defective viruses. The virus-containing supernatants were harvested 36-40 h after transfection, spun, aliquoted, and frozen at −80° C. until further use. The reverse transcriptase (RT) activities of all viruses were measured as described in Rho, H. M., et al. Virology 1981, 112, 355-360.
(§4) Infection by Single-Round Luciferase Viruses. Cf2Th-CCR5-CD4 target cells were seeded at a density of 6×10^3 cells/well in 96-well luminometer-compatible tissue culture plates (PerkinElmer) 24 h before infection. On the day of infection, CD4-mimetic compounds of interest (0-100 μM) were incubated with recombinant viruses (10,000 RT units) at 37° C. for 30 min. In the case of sensitization assays, a constant concentration of compounds was incubated with virus for 30 min at 37° C.; then, 17b or other antibodies (0-100 μg/mL) were added to the virus/compound mixture and incubated for an additional 30 min at 37° C. The mixtures were then added to the target cells and incubated for 48 h at 37° C.; after this time, the medium was removed from each well, and the cells were lysed by the addition of 30 μL passive lysis buffer (Promega) and three freeze-thaw cycles. An EG&G Berthold Microplate Luminometer LB 96V was used to measure the luciferase activity of each well after the addition of 100 μL of luciferin buffer (15 mM MgSO4, 15 mM KPO4, pH 7.8, 1 mM ATP, and 1 mM dithiothreitol) and 50 μL of 1 mM Firefly D-Luciferin Free Acid 99% (Prolume).

A-MLV = assay: Infection by single-round luciferase viruses, control A-MLV envelope; assay type: cell-based, amphotropic murine leukemia virus; conditions: Murine leukemia virus, 48 h, read-out: A-MLV (μM)
Experimental: as §1, §2, §3, §4

gp120 = gp120 (Human immunodeficiency virus type 1 group M subtype B, UniProt P35961); conditions: background statement; cited from earlier work
[1] = Evaluation of blood-brain barrier: brain and plasma concentrations; assay type: in vivo; conditions: 1 hr post IP at 5 mg/kg, female CD1 mice
Experimental: Compound BNM-III-170 was administered to mice under a protocol approved by the University of Pennsylvania Institutional Animal Care and Use Committee. Specifically, BNM-III-170, dissolved in DMSO, was administered IP at 5 mg/kg to 3 month old female CD1 mice. Mice were euthanized 1 hour post dose. Brain and plasma were then collected.
Hemi-brains were homogenized with 10 mM ammonium acetate pH 4.0 (50% w/v) using a sonic dismembrator. Brain homogenate and plasma were extracted with 4 parts (v/v) acetonitrile, vortexed, and centrifuged at 15,000 g for 10 minutes. Supernatants were analyzed by LC-MS/MS using a Waters Acuity UPLC-TQMS. Samples (5 μL) were separated using a BEH C18 column (1.7 μm, 2.1×50 mm) at 0.6 mL/min from 5 to 95% acetonitrile with 0.1% formic acid over 2 minutes. BNM-III-170 was detected in positive ion mode using selected reaction monitoring of a specific collision induced ion transition (447.3>184.1 m/z). Unknown peak areas were quantified against standard curves constructed with BNM-III-170 spiked mouse brain homogenate or plasma extracted as above to final concentrations from 1 to 1000 ng/mL.

[2] = Assessment of the maximum tolerated dose (MTD); conditions: mouse, in vivo, ip; intraperitoneal, CD-1 mice
Experimental: Procedure: (+)-BNM-III-170 was dissolved in DMSO to a final concentration of 10 mg/mL. This solution was then used for intraperitoneal administration to CD-1 mice at various doses to examine for visible signs of intolerance after compound dosing. This included an assessment of hyper- or hypoactivity, altered locomotion, ataxia, sedation, or other visible abnormalities. The compound was ultimately tested at three doses (30 mg/kg, 10 mg/kg and 3 mg/kg), as outlined below, with the amounts injected per mouse and the behavioral observations indicated for each dosing group.

| Compound | IC50 (JR-FL) | Kd (monomeric YU-2 gp120) | ΔG (monomeric YU-2 gp120) | ΔH (monomeric YU-2 gp120) | −TΔS (kcal/mol) (monomeric YU-2 gp120) | IC50 (AD8) | IC50 (YU-2) | IC50 (A-MLV) | favorable enthalpy change (gp120) | unfavorable entropy change, −TΔS, to Gibbs energy (gp120) | B/P ([1]; individual mice 1-3) | Brain ([1]; individual mice 1-3) | Plasma ([1]; individual mice 1-3) | Kp at 1 h ([1]; female, CD1, mouse, brain, ip, 5 mg/kg, AVG of 3 mice, read-out: B/P) | concentration at 1 h ([1]; female, CD1, mouse, brain, ip, 5 mg/kg, AVG of 3 mice, read-out: Brain) | concentration at 1 h ([1]; female, CD1, mouse, plasma, ip, 5 mg/kg, AVG of 3 mice, read-out: Plasma) | MTD [2] |
| --- | --- | --- | --- | --- | --- | --- | --- | --- | --- | --- | --- | --- | --- | --- | --- | --- | --- |
| CN(Cc1ccc2c(c1)[C@H](NC(=O)C(=O)Nc1ccc(Cl)c(F)c1)[C@@H](CNC(=N)N)C2)C(=N)N [(−)-BNM-IV-197] | 19.5 ± 10.1 µM | 0.095 µM | -9.6 kcal/mol | -14.2 kcal/mol | +4.6 kcal/mol | 1.3 ± 0.2 µM | 1.2 ± 0.3 µM | 83.7 ± 16.4 µM |  |  |  |  |  |  |  |  |  |
| CC1(C)CC(NC(=O)C(=O)Nc2ccc(Cl)cc2)CC(C)(C)N1 [NBD-556] |  |  |  |  |  |  |  |  | -24.5 kcal/mol | 17.1 kcal/mol |  |  |  |  |  |  |  |
| CNCc1ccc2c(c1)[C@H](NC(=O)C(=O)Nc1ccc(Cl)c(F)c1)[C@@H](CNC(=N)N)C2 [(+)-JP-III-048] | 37.3 ± 13.8 µM | 0.024 µM | -10.4 kcal/mol | -28.2 kcal/mol | +17.8 kcal/mol | 6.7 ± 0.6 µM | 2.1 ± 0.9 µM | > 100 µM |  |  |  |  |  |  |  |  |  |
| CNCc1ccc2c(c1)C[C@H](CNC(=N)N)[C@H]2NC(=O)C(=O)Nc1ccc(Cl)c(F)c1 [(+)-BNM-III-170] | 14.2 ± 4.5 µM | 0.047 µM | -10.0 kcal/mol | -20.7 kcal/mol | +10.7 kcal/mol | 6.4 ± 1 µM | 1.5 ± 0.8 µM | > 100 µM |  |  | 0.51 and 0.14 and 0.45 | 268 ng/g and 131 ng/g and 122 ng/g | 522 ng/mL and 910 ng/mL and 270 ng/mL | 0.37 | 174 ng/g | 567 ng/mL | 3 to 9 mg/kg |
| CN(Cc1ccccc1)Cc1ccc2c(c1)C[C@H](CNC(=N)N)[C@H]2NC(=O)C(=O)Nc1ccc(Cl)c(F)c1 [(+)-BNM-IV-125] | 14 ± 2 µM |  |  |  |  |  |  | > 100 µM |  |  |  |  |  |  |  |  |  |
| N=C(N)NC[C@H]1Cc2ccccc2[C@@H]1NC(=O)C(=O)Nc1ccc(Cl)c(F)c1 [(+)-DMJ-II-121] | 66.8 ± 9.5 µM |  | -9.5 kcal/mol | -17.9 kcal/mol | +8.4 kcal/mol | 8.5 ± 2.1 µM | 3.8 ± 1.3 µM | 94.3 ± 5.7 µM |  |  |  |  |  |  |  |  |  |
| CN(Cc1ccc2c(c1)C[C@H](CNC(=N)N)[C@H]2NC(=O)C(=O)Nc1ccc(Cl)c(F)c1)C(=N)N [(+)-BNM-IV-147] | 6.2 ± 0.5 µM | 0.095 µM | -9.6 kcal/mol | -15.4 kcal/mol | +5.8 kcal/mol | 3.3 ± 0.2 µM | 0.8 ± 0.02 µM | > 100 µM |  |  |  |  |  |  |  |  |  |
